Measured values from patent publication US8415469B2, “Compounds and methods for kinase modulation, and indications therefor” (Plexxikon Inc., priority 2005, dated 2013).

Legend:
Format in all cases: biochemical
B-Raf = biological target: T1, B-Raf (Homo sapiens, UniProt P15056); experiment: AlphaScreen kinase assay, B-Raf; conditions: read-out: IC50, activity toward kinase B-Raf
T1 construct: purchased Upstate Biotechnology

Kdr = biological target: T2, Kdr (Homo sapiens, UniProt P35968); experiment: Z'-Lyte FRET kinase assay (Invitrogen), Kdr; conditions: read-out: IC50, activity toward kinase Kdr
T2 construct: purchased Invitrogen (assay run by Invitrogen)

Ret = biological target: T3, Ret (Homo sapiens, UniProt P07949); experiment: AlphaScreen kinase assay, Ret; conditions: read-out: IC50, activity toward kinase Ret
T3 construct: P1378.pET-SF BI-PTP RET H661-R1012 HIS; made in house
T3 sequence (P07949 with tags, fused parts or gaps): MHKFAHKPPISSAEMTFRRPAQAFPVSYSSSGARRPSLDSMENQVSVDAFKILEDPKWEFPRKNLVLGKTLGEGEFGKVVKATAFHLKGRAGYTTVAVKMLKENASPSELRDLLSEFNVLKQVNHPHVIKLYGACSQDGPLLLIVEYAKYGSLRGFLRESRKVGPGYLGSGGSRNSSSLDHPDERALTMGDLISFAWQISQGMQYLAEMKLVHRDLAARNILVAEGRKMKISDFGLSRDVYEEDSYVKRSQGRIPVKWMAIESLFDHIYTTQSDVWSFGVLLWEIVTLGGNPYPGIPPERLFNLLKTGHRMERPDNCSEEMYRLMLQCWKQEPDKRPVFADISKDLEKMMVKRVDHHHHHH

Stk6 = biological target: T4, Stk6 (Homo sapiens, UniProt O14965); experiment: Z'-Lyte FRET kinase assay (Invitrogen), Stk6; conditions: read-out: IC50, activity toward kinase Stk6
T4 construct: purchased Invitrogen (Carlsbad, Calif.), screening service
T4 sequence (O14965 1-403): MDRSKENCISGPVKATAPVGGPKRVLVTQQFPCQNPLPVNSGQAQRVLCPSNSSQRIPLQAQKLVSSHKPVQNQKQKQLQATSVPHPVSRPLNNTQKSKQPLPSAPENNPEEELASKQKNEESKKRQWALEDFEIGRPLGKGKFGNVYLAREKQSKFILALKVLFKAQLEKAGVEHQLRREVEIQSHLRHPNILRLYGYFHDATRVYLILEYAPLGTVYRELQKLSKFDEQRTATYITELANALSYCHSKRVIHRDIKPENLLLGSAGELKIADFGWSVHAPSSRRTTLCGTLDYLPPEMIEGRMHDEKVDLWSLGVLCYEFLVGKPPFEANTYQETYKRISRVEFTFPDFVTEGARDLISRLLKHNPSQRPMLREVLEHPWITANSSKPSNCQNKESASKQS

Yes = biological target: T5, Yes (Homo sapiens, UniProt P07947); experiment: Z'-Lyte FRET kinase assay (Invitrogen), Yes; conditions: read-out: IC50, activity toward kinase Yes
T5 construct: purchased Invitrogen (Carlsbad, Calif.), screening service
Description: The effect of potential modulators of kinase activity can be measured in a variety of different assays known in the art. For example, direct radiometric, indirect FRET or AlphaScreen assays may be used to assess the level of phosphorylation of a substrate in the presence of test compounds in order to determine the inhibitory affect of the compound on the kinase. Invitrogen (Carlsbad, Calif.) uses a FRET based assay for Btk, EGFR, EphB2, Flt3, lrak4, Kdr, MAP2K1, MAPKAPK2, PDGFRB, PKC theta, Stk6 and Yes. For these assays, compounds of the invention were screened by Invitrogen using Z′-Lyte™ kinase assay.
Briefly, the Invitrogen kinase assay involves use of a specific peptide substrate optimized for each kinase, containing a fluorophore at each end that make up the FRET pair. The peptide sensitivity to proteolytic cleavage depends on phosphorylation of the peptide. Non-phosphorylated peptide is cleaved by a protease while peptide phosphorylated by the kinase is not cleaved. Cleavage of the peptide disrupts the FRET between the donor (coumarin) and acceptor (fluorescein) fluorophores, resulting in an increase in the ratio of donor emission to acceptor emission. The emission ratio of coumarin to fluorescein is used to assess the reaction progress. The extent of phosphorylation is determined from the emission ratio, which is low when the kinase is active (phosphorylated peptide is not cleaved, FRET pair connected) or higher for inhibited kinase (non-phosphorylated peptide is cleaved, FRET pair separated). Thus, the assay involves a kinase reaction in the presence of varying concentrations of a given compound, a development reaction with site specific protease, and detection of the fluorescent emission ratio of coumarin and fluorscein. […] Reaction conditions for each kinase are determined to provide optimal reaction times, incubation temperature, kinase and ATP concentrations. Test samples are made up in 1× kinase buffer (50 mM HEPES pH 7.5, 50 mM MgCl2, 5 mM EGTA, 0.05% BRIJ-35) and compound at desired concentration prepared in DMSO such that the final DMSO is 1%. […] Typically, assay plates are prepared to 10 μl final volume per sample, adding 2.5 μl of compound at 4× the desired concentration in 4% DMSO (serial dilution of compound provides concentration curve), 5 μl of the desired kinase mixed with Z′-LYTE™ peptide substrate (2× in 2× kinase buffer, final peptide at 2 μM), and 2.5 μl of 4×ATP solution. All kinase except for MAP2K1 were at 10 μM ATP in the kinase reaction, while MAP2K1 was at 100 μM. Samples are mixed and the kinase reaction is incubated 1 hour at room temperature, after which 5 μl of development solution is added and mixed. After incubation for another 1 hour at room temperature, 5 μl of stop reagent is added to each sample and mixed. The fluorescence signals are measured to determine the emission ratio.

B-Raf V600E = biological target: T6, B-Raf V600E (Homo sapiens, UniProt P15056, V600E); experiment: AlphaScreen kinase assay, B-Raf V600E; conditions: read-out: IC50, activity toward kinase B-Raf V600E
T6 construct: P4254. pFastBacBD-CDC37 BRAF D437-K722-X, V600E; His6 with pFastBac HT leader (TEV site) (N); made in house; host or cells: Sf9 (baculovirus; chaperone CDC37 co-expressed)

FGFR1 = biological target: T7, FGFR1 (Homo sapiens, UniProt P11362, C488A/C584S); experiment: AlphaScreen kinase assay, FGFR1; conditions: read-out: IC50, activity toward kinase FGFR
T7 construct: P1351.pET N6 BI-PTP FGFR A458-E765-X C488A, C584S; made in house; host or cells: E. coli (PTP1B co-expressed)

Fms = biological target: T8, Fms (Homo sapiens, UniProt P07333); experiment: AlphaScreen kinase assay, Fms; conditions: read-out: IC50, activity toward kinase Fms
T8 construct: purchased Upstate Biotechnology

c-Raf-1 = biological target: T9, c-Raf-1 (Homo sapiens, UniProt P04049); experiment: AlphaScreen kinase assay, c-Raf-1; conditions: read-out: IC50, activity toward kinase c-Raf-1
T9 construct: purchased Upstate Biotechnology

Kit = biological target: T10, Kit (Homo sapiens, UniProt P10721); experiment: AlphaScreen kinase assay, Kit; conditions: read-out: IC50, activity toward kinase Kit
T10 construct: P1332.N6 BI PTP KIT M552-K948-X COD; His6 (N); made in house; host or cells: E. coli (PTP1B co-expressed)

Fak = biological target: T11, Fak (Homo sapiens, UniProt Q05397); experiment: AlphaScreen kinase assay, Fak; conditions: read-out: IC50, activity toward kinase Fak
T11 construct: P1358.pFastBacHtb FAK S411-Q686-X; His6 with pFastBacHTb leader (TEV site) (N); made in house; host or cells: Sf9 (baculovirus)

Src = biological target: T12, Src (Homo sapiens, UniProt P12931); experiment: AlphaScreen kinase assay, Src; conditions: read-out: IC50, activity toward kinase Src
T12 construct: P1144. pET-N6 BI-PTP SRC V86-L536-X; made in house

Flt1 = biological target: T13, Flt1 (Homo sapiens, UniProt P17948); experiment: AlphaScreen kinase assay, Flt1; conditions: read-out: IC50, activity toward kinase Flt1
T13 construct: P1826.pETN6 BI-PTP FLT1 M799-D1165-X WT; His6 (N); made in house; host or cells: E. coli (PTP1B co-expressed)
T13 sequence (P17948 with tags, fused parts or gaps): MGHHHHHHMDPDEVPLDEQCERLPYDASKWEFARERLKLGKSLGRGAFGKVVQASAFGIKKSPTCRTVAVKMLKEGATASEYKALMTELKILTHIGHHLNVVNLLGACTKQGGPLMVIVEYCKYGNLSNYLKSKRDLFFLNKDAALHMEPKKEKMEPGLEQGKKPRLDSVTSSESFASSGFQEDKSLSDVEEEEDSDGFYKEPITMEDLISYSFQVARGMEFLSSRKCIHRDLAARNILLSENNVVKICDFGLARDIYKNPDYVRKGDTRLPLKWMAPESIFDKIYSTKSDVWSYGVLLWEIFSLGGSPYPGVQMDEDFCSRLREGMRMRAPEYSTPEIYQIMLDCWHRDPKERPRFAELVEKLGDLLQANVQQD

Jnk3 = biological target: T14, Jnk3 (Homo sapiens, UniProt P53779); experiment: AlphaScreen kinase assay, Jnk3; conditions: read-out: IC50, activity toward kinase Jnk3
T14 construct: purchased Upstate Biotechnology

Jnk1 = biological target: T15, Jnk1 (Homo sapiens, UniProt P45983); experiment: AlphaScreen kinase assay, Jnk1; conditions: read-out: IC50, activity toward kinase Jnk1
T15 construct: purchased Upstate Biotechnology

Jnk2 = biological target: T16, Jnk2 (Homo sapiens, UniProt P45984); experiment: AlphaScreen kinase assay, Jnk2; conditions: read-out: IC50, activity toward kinase Jnk2
T16 construct: purchased Roche Protein Expression Group (Indianapolis, IN)
Procedure, shortened: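 Eight concentrations per compound (1:3 serial dilution of 20 mM DMSO stock) were tested. Read-out: AlphaScreen signal from phospho-antibody acceptor and streptavidin donor beads bound to biotinylated peptide substrate, reduced on kinase inhibition.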

Pyk2 = biological target: T17, Pyk2 (Homo sapiens, UniProt Q14289); experiment: AlphaScreen kinase assay, Pyk2; conditions: read-out: IC50, activity toward kinase Pyk2
T17 construct: purchased Upstate Biotechnology

T1 sequence (P15056 whole entry): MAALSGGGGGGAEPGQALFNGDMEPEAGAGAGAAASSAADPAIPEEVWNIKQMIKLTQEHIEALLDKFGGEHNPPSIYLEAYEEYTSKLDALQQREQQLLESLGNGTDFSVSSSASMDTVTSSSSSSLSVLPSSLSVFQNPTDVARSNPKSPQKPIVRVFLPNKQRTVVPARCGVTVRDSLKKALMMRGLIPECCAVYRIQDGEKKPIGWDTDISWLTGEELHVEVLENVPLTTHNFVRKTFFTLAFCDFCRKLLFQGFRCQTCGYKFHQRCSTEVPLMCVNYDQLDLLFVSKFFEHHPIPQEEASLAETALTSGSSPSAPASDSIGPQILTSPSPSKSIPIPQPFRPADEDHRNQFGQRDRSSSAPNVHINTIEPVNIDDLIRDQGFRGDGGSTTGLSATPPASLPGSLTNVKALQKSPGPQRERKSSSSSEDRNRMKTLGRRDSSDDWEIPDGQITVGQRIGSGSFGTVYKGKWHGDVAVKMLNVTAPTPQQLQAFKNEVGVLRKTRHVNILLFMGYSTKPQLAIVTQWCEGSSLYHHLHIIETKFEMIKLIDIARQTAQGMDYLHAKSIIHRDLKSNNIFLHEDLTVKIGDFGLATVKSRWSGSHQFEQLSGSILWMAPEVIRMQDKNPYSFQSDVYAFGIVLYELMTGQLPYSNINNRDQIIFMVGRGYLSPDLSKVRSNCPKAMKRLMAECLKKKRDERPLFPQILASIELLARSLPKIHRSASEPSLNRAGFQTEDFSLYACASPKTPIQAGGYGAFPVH
T12 sequence (P12931 with tags, fused parts or gaps): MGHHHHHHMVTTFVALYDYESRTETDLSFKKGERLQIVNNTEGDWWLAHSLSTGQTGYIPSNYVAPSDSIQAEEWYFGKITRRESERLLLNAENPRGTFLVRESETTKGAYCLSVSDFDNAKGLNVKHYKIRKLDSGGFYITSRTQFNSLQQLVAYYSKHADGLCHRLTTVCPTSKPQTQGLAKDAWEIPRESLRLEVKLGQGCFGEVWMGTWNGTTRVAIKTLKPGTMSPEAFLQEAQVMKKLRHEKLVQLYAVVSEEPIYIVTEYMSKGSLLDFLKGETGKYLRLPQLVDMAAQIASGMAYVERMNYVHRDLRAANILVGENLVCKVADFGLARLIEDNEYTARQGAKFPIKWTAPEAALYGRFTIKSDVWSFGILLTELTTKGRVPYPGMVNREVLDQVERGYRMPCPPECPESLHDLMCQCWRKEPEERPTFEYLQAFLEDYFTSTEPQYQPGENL
T7 sequence (P11362 458-765 C488A/C584S): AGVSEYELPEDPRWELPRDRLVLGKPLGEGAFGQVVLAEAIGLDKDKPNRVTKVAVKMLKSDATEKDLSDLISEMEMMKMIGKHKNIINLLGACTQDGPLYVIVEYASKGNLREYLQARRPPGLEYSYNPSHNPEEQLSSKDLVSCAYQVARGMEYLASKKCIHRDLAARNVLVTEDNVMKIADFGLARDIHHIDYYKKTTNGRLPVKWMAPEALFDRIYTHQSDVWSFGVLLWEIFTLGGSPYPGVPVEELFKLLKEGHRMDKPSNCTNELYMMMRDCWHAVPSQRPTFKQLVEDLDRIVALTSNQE
T8 sequence (P07333 20-972): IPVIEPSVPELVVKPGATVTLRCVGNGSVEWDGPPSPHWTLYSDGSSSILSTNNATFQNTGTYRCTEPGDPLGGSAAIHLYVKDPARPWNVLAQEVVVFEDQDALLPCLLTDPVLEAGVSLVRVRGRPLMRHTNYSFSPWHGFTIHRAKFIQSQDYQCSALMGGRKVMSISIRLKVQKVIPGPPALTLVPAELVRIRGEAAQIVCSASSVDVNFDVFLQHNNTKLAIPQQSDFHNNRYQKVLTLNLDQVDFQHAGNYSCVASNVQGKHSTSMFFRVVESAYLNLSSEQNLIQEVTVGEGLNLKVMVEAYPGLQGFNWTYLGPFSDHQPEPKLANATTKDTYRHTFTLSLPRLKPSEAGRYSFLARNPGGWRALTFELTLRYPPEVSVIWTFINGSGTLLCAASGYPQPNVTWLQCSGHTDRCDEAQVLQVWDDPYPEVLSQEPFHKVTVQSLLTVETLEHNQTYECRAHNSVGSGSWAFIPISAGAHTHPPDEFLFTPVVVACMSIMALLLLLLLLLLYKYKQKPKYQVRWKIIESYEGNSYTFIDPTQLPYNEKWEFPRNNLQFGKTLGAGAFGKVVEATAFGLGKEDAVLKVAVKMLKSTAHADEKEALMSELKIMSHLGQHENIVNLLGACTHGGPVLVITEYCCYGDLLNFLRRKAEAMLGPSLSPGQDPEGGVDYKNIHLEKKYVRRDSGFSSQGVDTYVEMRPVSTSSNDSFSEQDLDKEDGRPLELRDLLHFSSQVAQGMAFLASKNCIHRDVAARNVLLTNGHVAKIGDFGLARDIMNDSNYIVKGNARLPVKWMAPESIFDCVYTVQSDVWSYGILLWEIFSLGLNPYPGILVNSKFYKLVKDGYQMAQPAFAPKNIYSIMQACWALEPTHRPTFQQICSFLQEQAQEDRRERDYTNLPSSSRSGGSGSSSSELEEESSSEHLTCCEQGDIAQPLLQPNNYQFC
T5 sequence (P07947 whole entry): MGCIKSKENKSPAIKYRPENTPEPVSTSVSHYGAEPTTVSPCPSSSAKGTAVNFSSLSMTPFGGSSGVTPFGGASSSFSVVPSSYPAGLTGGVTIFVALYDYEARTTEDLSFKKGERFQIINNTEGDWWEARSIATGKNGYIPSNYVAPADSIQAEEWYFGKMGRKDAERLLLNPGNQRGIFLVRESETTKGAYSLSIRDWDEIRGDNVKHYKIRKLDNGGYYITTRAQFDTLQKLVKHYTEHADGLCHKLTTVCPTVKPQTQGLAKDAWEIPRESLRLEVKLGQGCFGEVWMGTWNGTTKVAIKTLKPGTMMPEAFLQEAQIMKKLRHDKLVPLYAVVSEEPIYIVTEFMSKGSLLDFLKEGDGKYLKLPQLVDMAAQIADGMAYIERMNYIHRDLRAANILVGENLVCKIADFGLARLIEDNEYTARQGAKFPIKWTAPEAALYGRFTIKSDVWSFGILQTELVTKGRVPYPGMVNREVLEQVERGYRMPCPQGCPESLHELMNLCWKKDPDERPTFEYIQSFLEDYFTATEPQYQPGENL
T6 sequence (P15056 with tags, fused parts or gaps V600E): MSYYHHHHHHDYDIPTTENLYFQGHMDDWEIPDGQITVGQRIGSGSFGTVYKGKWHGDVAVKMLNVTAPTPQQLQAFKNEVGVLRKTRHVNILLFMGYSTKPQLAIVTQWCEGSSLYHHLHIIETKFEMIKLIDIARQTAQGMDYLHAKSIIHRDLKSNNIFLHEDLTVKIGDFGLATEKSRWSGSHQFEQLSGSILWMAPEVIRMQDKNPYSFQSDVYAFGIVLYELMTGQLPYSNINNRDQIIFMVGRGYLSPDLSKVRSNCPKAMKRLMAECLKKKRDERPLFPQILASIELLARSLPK
T2 sequence (P35968 20-1356): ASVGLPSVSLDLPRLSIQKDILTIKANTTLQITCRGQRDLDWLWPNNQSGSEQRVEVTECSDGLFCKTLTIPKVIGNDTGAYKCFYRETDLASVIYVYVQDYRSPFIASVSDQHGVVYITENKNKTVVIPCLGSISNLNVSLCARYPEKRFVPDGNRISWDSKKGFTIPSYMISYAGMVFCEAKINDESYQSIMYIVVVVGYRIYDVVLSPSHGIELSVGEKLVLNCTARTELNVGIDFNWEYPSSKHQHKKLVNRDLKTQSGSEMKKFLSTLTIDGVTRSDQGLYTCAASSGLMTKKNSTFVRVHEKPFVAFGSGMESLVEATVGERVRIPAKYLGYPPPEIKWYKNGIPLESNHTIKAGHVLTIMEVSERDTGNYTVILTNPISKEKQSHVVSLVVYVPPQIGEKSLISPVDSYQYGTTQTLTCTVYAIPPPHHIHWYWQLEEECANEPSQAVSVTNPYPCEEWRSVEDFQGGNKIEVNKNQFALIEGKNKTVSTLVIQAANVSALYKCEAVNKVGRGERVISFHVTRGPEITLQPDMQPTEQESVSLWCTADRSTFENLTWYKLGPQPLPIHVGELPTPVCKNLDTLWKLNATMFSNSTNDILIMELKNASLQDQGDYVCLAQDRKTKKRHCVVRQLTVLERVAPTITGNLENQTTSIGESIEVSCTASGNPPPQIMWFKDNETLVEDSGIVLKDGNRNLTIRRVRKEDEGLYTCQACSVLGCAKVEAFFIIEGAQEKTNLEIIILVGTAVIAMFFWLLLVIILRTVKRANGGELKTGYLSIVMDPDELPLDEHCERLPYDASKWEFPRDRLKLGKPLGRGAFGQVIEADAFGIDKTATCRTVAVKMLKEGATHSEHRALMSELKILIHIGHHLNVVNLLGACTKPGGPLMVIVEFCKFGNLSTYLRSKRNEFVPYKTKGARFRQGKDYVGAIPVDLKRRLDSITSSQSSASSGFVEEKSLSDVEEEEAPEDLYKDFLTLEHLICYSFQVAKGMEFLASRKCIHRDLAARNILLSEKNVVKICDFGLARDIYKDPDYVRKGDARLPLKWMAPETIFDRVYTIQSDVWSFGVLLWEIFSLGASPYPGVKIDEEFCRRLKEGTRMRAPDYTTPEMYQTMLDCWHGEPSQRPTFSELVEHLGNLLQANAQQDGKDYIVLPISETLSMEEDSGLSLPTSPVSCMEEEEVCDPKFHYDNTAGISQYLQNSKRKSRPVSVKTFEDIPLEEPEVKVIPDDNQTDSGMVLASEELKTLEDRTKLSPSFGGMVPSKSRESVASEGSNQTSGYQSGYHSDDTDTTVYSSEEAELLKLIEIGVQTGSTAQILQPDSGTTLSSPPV
T11 sequence (Q05397 411-686): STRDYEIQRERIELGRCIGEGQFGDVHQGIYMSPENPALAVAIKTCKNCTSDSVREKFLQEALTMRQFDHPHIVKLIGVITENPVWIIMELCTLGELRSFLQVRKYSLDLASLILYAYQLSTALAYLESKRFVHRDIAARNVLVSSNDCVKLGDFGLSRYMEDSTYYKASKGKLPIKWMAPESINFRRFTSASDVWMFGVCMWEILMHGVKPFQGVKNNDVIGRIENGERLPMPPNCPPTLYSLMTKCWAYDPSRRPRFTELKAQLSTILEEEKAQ

IC50 (Kdr) [µM]	IC50 (Stk6) [µM]	IC50 (Yes) [µM]	IC50 (B-Raf V600E) [µM]	IC50 (FGFR1) [µM]	IC50 (Fms) [µM]	SMILES	further results
≤ 10	≤ 10	≤ 10				COC(=O)Nc1ccc(F)c(C(O)c2c[nH]c3ncc(-c4cccnc4)cc23)c1F (centres unmarked) [Compound P-0065, {2,4-difluoro-3-[hydroxy-(5-pyridin-3-yl-1H-pyrrolo[2,3b]pyridin-3-yl)-methyl]-phenyl}-carbamic acid methyl ester]	IC50 (B-Raf): ≤ 10 µM; IC50 (Ret): ≤ 10 µM
≤ 10	≤ 10	≤ 10	≤ 10	≤ 10	≤ 10	c1csc(CNc2ccc(Cc3c[nH]c4ncccc34)cn2)c1 [Compound P-0129]	
	≤ 10	≤ 10	≤ 10			COc1ccc(-c2cnc3[nH]cc(C#Cc4ccccc4)c3c2)cc1OC [Compound P-0153]	
≤ 10		≤ 10				COc1cccc(C(O)c2c[nH]c3ncc(-c4cccs4)cc23)c1 (centres unmarked) [Compound P-0161]	
≤ 10	≤ 10	≤ 10	≤ 10			CS(=O)(=O)Nc1ccc(F)c(C(=O)c2c[nH]c3ncc(Br)cc23)c1F [Compound P-0162, N-[3-(5-Bromo-1H-pyrrolo[2,3-b]pyridine-3-carbonyl)-2,4-difluoro-phenyl]-methanesulfonamide]	IC50 (B-Raf): ≤ 10 µM; IC50 (c-Raf-1): ≤ 10 µM
≤ 10		≤ 10	≤ 10	≤ 10	≤ 10	COc1ccc(F)c(C(=O)c2c[nH]c3nccc(Cl)c23)c1 [Compound P-0175]	IC50 (Kit): ≤ 10 µM; IC50 (Ret): ≤ 10 µM
		≤ 10				COc1cccc(-c2ccc3c(CNS(=O)(=O)c4ccc(C)cc4)c[nH]c3n2)c1 [Compound P-0209]	IC50 (Fak): ≤ 10 µM; IC50 (Src): ≤ 10 µM
≤ 10		≤ 10				O=C(c1cccc(O)c1)c1c[nH]c2ncc(-c3ccccc3)cc12 [Compound P-0230]	
	≤ 10	≤ 10	≤ 10		≤ 10	O=C(c1ccc(NCc2cccs2)nc1)c1c[nH]c2ncccc12 [Compound P-0237]	IC50 (Src): ≤ 10 µM
		≤ 10	≤ 10	≤ 10		CC(=O)Oc1cccc(C(=O)c2c[nH]c3ncc(Br)cc23)c1C [Compound P-0271]	IC50 (B-Raf): ≤ 10 µM
	≤ 10	≤ 10				C(=C\c1c[nH]c2ncccc12)/c1ccc(NCc2ccccc2)cc1 [Compound P-0283]	
		≤ 10			≤ 10	O=C(c1ccc(NCc2cccc(F)c2)nc1)c1c[nH]c2ncccc12 [Compound P-0327]	
		≤ 10	≤ 10	≤ 10	≤ 10	O=C(c1ccc(NCc2ccccc2)nc1)c1c[nH]c2ncccc12 [Compound P-0483]	IC50 (Flt1): ≤ 10 µM; IC50 (Jnk3): ≤ 10 µM; IC50 (Src): ≤ 10 µM
			≤ 10	≤ 10	≤ 10	COC(=O)Nc1ccc(F)c(C(=O)c2c[nH]c3ncc(-c4cccnc4)cc23)c1F [Compound P-0486, [2,4-Difluoro-3-(5-pyridin-3-yl-1H-pyrrolo[2,3-b]pyridine-3-carbonyl)-phenyl]-carbamic acid methyl ester]	IC50 (B-Raf): ≤ 10 µM; IC50 (c-Raf-1): ≤ 10 µM; IC50 (Fak): ≤ 10 µM; IC50 (Flt1): ≤ 10 µM; IC50 (Jnk1): ≤ 10 µM; IC50 (Jnk2): ≤ 10 µM; IC50 (Pyk2): ≤ 10 µM; IC50 (Ret): ≤ 10 µM
